Conditions: Liquid, Closed cell (Static) method

O=C=O [carbon dioxide]
Conditions | vapor or sublimation pressure [kPa]
213.22 K | 410.4
223.15 K | 681.8
243.13 K | 1426.3
263.13 K | 2646.7
273.22 K | 3491.3
283.15 K | 4502.3
299.22 K | 6595

Source: the NIST ThermoML archive (doi:10.1016/j.fluid.2018.02.009)
